Laboratory results published in patent publication US8258309B2, “Azapeptide derivatives” (priority 2007, dated 2012).

Legend:
[1] = Rat pharmacokinetics, intravenous and oral co-dosing of Compound 122 and atazanavir; assay type: in vivo; details: male, Sprague-Dawley, plasma, rats, 1 mg/kg of each
Experimental: Rat Pharmacokinetics. […] Then the combo dose was prepared by mixing both by 1:1 to yield a final concentrations at 1 mg/mL for each compound (pH=5-6) for intravenous and oral administration. Male Sprague-Dawley rats (body weight: 170 g to 235 g) were used in this study. […] Blood samples (300 μL) were collected via the retro-orbital vein at pre-dose and 0.083, 0.25, 0.5, 1, 2, 4, 6, 8, 10, 12 and 24 hours post-dose. Blood samples were placed into heparinized eppendorf tubes (evaporated) and then centrifuged at 8000 rpm for 6 minutes. 100 μL aliquots of plasma were transferred to clean Eppendorf tubes and stored with the dose formulation at -20° C. until bioanalysis. For bioanalysis, plasma was thawed and added to it was 20 μL methanol and 500 μL of a 50 ng/ml internal standard solution (quetiapine in methanol). The sample was vortexed, centrifuged at 15,000 rpm for 5 minutes and the supernatant transferred to glass autosampler vials. Analyses of plasma samples were performed using a high performance liquid chromatography/mass spectrometry (HPLC/MS/MS) method. The LC system comprised an Agilent (Agilent Technologies Inc, USA) liquid chromatograph equipped with an isocratic pump (1100 series), an autosampler (1100 series) and a […]). Mass spectrometric analysis was performed using an API3000 (triple-quadrupole) instrument from AB Inc (Canada) with an ESI interface. The data acquisition and control system were created using Analyst 1.4 software from ABI Inc. Following intravenous co-administration of Compound 122 and atazanavir, atazanavir disappeared more rapidly from the blood.

[2] = Chimp pharmacokinetics Run A, IV or PO co-dosing of atazanavir and Compounds 114, 120, 122; assay type: in vivo, chimpanzee; details: for concentration at 24 h: concentration detected intact in urine
Experimental: Chimp Pharmacokineties. Run A: A 4 mg/mL solution of atazanavir and each of Compounds 114, 120 and 122 were prepared in 10% DMI (dimethyl isosorbide), 15% EtOH, 35% PG in D5W. Specifically, for each compound, 240 mgs of compound was dissolved in a solution composed of 6 mL of DMI, 9 mL of EtOH and 21 mL PG. Once the compound was fully dissolved, 24 mL of D5W was added and the solution mixed.
Fifty-five mL of each drug solution is then combined and the mixture was sterile filtered using a 0.2 μm filter. This produced 220 mL of a 1:1:1:1 mixture atazanavir:Compound 114:Compound 120:Compound 122. The final concentration of each drug in the solution was 1 mg/mL. Each animal received 50 mL of this solution through either IV or PO routes.
Four chimps (two male and two female) were used in this study and were fasted overnight prior to administration of the compound solution. Animals were sedated with ketamine and/or telazol prior to dosing. Intravenous dosing was achieved by IV infusion over 30 minutes.
Approximately 4.5 mL of blood was collected into vacutainer tubes with sodium heparin as an anticoagulant at 0 (preinfusion), 15 min., 29.5 min (immediately before the end of the infusion), and then at 6, 15, 30, and 45 minutes, and 1, 2, 4, 6, 8, 10, 12, 24 hours after the infusion is stopped. A similar procedure was used to collect blood after oral dosing with samples taken at 0 (predose), 15, and 30 minutes, and at 1, 1.5, 2, 4, 6, 8, 10, 12, 24 hours postdose. Following sample collection, the vacutainer tubes were rocked by hand several times to insure adequate mixing. Blood samples were placed immediately on wet ice and centrifuged within 1 hour from time of collection. Following centrifugation, the resulting plasma was stored frozen at −70° C. until analysis. The results are summarized in FIGS. 4 and 5 and tables 6 and 7.

[3] = system: HIV-1RF; assay: HIV anti-viral activity in CEM-SS cells infected with HIV-1 (XTT); assay type: cell-based
Experimental: The HIV antiviral activity of compound of the present invention was tested in CEM-SS cells infected with HIV-1. CEM-SS cells were passaged in T-75 flasks in RPMI 1640 medium supplemented with 10% heat inactivated fetal bovine serum, 2 mmol/L L-glutamine, 100 U/mL penicillin and 100 flg/mL streptomycin prior to use in the antiviral assay. On the day preceding the assay, the cells were split 1:2 to assure they were in an exponential growth phase at the time of infection. Total cell and viability quantification was performed using a hemocytometer and Trypan Blue dye exclusion. Cell viability was greater than 95% for the cells to be utilized in the assay. The cells were resuspended at 5×10^4 cells per mL in tissue culture medium and added to the drug-containing microtiter plates in a volume of 50 μL.
The virus used for the assay was the lymphocyte-tropic virus strain HIV-IRF. The virus was obtained from the NIH AIDS Research and Reference Reagent Program and stock virus pools were produced in CEM-SS cells. A pre-titered aliquot of virus was removed from the freezer (−80° C.) and allowed to thaw slowly to room temperature in a biological safety cabinet. Virus was resuspended and diluted into tissue culture medium such that the amount of virus added to each well in a volume of 50 μL was the amount determined to yield 85 to 95% cell killing at 6 days post-infection.
Each plate contains cell control wells (cells only), virus control wells (cells plus virus), compound toxicity wells (cells plus compound only), compound colorimetric control wells (compound only) as well as experimental wells (compound plus cells plus virus). Samples were tested in triplicate with eleven half-log dilutions per compound starting at 0.1 μM of compound. Compounds 104, 120 and 122 were tested, as was atazanavir and AZT. […]
Following incubation at 37° C. in a 5% CO2 incubator, the test plates were stained with the tetrazolium dye XTT (2,3-bis(2-methoxy-4-nitro-5sulfophenyl)-5-[(phenylamino)carbonyl]-2H-tetrazolium hydroxide). XTT-tetrazolium was metabolized by the mitochondrial enzymes of metabolically active cells to a soluble formazan product, allowing rapid quantitative analysis of the inhibition of HIV induced cell killing by anti-HIV test substances. XTT solution was prepared daily as a stock of 1 mg/mL in RPMI 1640. Phenazine methosulfate (PMS) solution was prepared at 0.15 mg/mL in PBS and stored in the dark at −20° C. XTT/PMS stock was prepared immediately before use by adding 40 μL of PMS per mL of XTT solution. Fifty microliters of XTT/PMS was added to each well of the plate and the plate was reincubated for 4 hours at 37° C. Plates were sealed with adhesive plate sealers and shaken gently or inverted several times to mix the soluble formazan product and the plate was read spectrophotometrically at 450/650 nm with a Molecular Devices Vmax plate reader.
Raw data was collected from the Softmax Pro 4.6 software and imported into a Microsoft Excel 2003 spreadsheet for analysis by linear curve fit calculations.

[4] = Human immunodeficiency virus 1, CEM-SS, +0.5 mg/mL AAGP
[5] = Human immunodeficiency virus 1, CEM-SS, +10 mg/mL HAS
[6] = Human immunodeficiency virus 1, CEM-SS, +AAGP + HSA
[7] = Human immunodeficiency virus 1, CEM-SS, No Serum Protein Added (cell culture medium)

| SMILES | AUC ([1]; intravenous co-dosing) [ng·h/mL] | half-life ([1]; intravenous co-dosing) [min] | AUC ([1]; oral co-dosing) [ng·h/mL] | Cmax ([1]; oral co-dosing) [ng/mL] | half-life ([1]; oral co-dosing) [min] | concentration detected intact in urine ([2]; chimpanzee, in vivo, iv, 24 h) [ng/mL] | concentration at 24 h ([2]; chimpanzee, in vivo, iv) [ng/mL] | concentration detected intact in urine ([2]; chimpanzee, in vivo, po, 24 h) [ng/mL] | concentration at 24 h ([2]; chimpanzee, in vivo, po) [ng/mL] | EC50 [3, 4] [nM] | EC50 [3, 5] [nM] | EC50 [3, 6] [nM] | EC50 [3, 7] [nM] | Ratio of urine concentration, compound:Atazanavir ([2]; chimp A242E, PO, 24 hours, Run A) | Ratio of urine concentration, compound:Atazanavir ([2]; chimp A336C, IV, 24 hours, Run A) | Ratio of urine concentration, compound:Atazanavir ([2]; chimpanzee, in vivo, iv, 24 h) | Ratio of urine concentration, compound:Atazanavir ([2]; chimpanzee, in vivo, po, 24 h) | fold less potent in the presence of HSA than in cell culture medium alone ([3]; 10 mg/mL HSA versus cell culture medium) | EC50 ([3]; +10 mg/mL HAS) [nM] | EC50 ([3]; No Serum Protein Added (cell culture medium)) [nM] |
| --- | --- | --- | --- | --- | --- | --- | --- | --- | --- | --- | --- | --- | --- | --- | --- | --- | --- | --- | --- | --- |
| COC(=O)N[C@H](C(=O)N[C@@H](Cc1ccccc1)[C@@H](O)CN(Cc1ccc(-c2ccccn2)cc1)NC(=O)[C@@H](NC(=O)OC)C(C)(C)C)C(C)(C)C [Atazanavir, atazanavir, reference compound] | 475 ± 15.9 | 13.8 ± 0.6 | 86 ± 51.2 | 109 ± 67.2 | 19.2 ± 3.6 | 1790 | 2000 | 516 | 569 | 4 | 4 | 8 | 1 | – | – | – | – | – | – | – |
| [2H]C([2H])([2H])OC(=O)N[C@H](C(=O)N[C@@H](Cc1ccccc1)[C@@H](O)CN(Cc1ccc(-c2ccccn2)cc1)NC(=O)[C@@H](NC(=O)OC([2H])([2H])[2H])C(C([2H])([2H])[2H])(C([2H])([2H])[2H])C([2H])([2H])[2H])C(C([2H])([2H])[2H])(C([2H])([2H])[2H])C([2H])([2H])[2H] [Compound 122, 1,14-Di(methyl-d3)(3S,8S,9S,12S)-3,12-bis[(1,1-dimethylethyl)-d9]-8-hydroxy-4,11-dioxo-9-(phenylmethyl)-6-[[4-(2-pyridinyl)phenyl]methyl]-2,5,6,10,13-pentaazatetradecanedioate] | 503 ± 25.1 | 15 ± 1.2 | 156 ± 70.6 | 183 ± 113 | 27.6 ± 9.6 | 3250 | 3130 | 1180 | 1280 | 2 | 0.9 | 6 | < 0.4 | 2.25 | 1.82 | 1.57 | 2.29 | two- to greater than three-fold less potent | 0.8 | 0.4 |
